The values that follow come from US20140119985A1, “Photodynamic Control of Microbial Growth on Surfaces” (ORTNER CLEANROOM ENGINEERING GMBH, priority 2010, published 2014).

Data set [1] has as its system Staphylococcus aureus. Kind of data set: Contact assay on dye-treated textile pieces. In kind it is cell-based. The settings on record: for cell growth: irradiation 1 min, distance 50 cm, about 10^4 cfu; for cfu calculated per ml cell culture: plates incubated 24 h; for number of colonies upon irradiation: distance 30 cm.
The subject of another data set is Klebsiella pneumoniae. The settings on record: LED 623 nm.
The test system of data set [2] is Stenotrophomonas maltophilia. Kind of data set: Contact assay on dye-treated textile pieces. The conditions noted are these: for cfu calculated per ml cell culture: plates incubated 48 h. The format is cell-based.
Protocol: (§1) Typically, 3 μl of a growing cell culture having a titer of 7×10^7 cfu/ml were used in contact assays, whereas 50 μl were employed in plating assays. In some assays, the cell cultures were employed in a dilution of 10^−1, 10^−2, 10^−3, 10^−4, and 10^−5, respectively.
(§2) The textile fabric employed was a clean room textile, in particular ION-NOSTAT VI.2 (Dastex Reinraumzubehör, Muggensturm, Germany). For contact assays, pieces of the textile fabric having a defined size of 1 cm×1 cm were employed.
(§3) In contact assays, the distance between the radiation source and the piece of textile fabric was in a range between 10 cm and 60 cm.
(§4) After complete drying of the textile pieces, 3 μl of a growing cell culture were added to the surface of the textile pieces. The pieces were irradiated with appropriate radiation (light) for a given period of time. Then, the textile pieces were contacted with agar plates; and the plates were incubated at 37° C. for 24 h.
Data set [3] concerns Candida albicans. Kind of data set: Contact assay on dye-treated textile pieces. The format is cell-based. The settings on record: irradiation 1 min, 2 min, 3 min, laser 15 mW, 532 nm.
Protocol: as §1, §2, §3, §4
For data set [4], the system named is Candida albicans. The conditions noted are these: dilution 10^−4, incubation period two days longer as compared to control.
Protocol: as §1
(§5) Methylene blue (MB), dimethyl methylene blue (DMMB), new metylene blue (NMB), and toluidine blue (TB) were provided as solutions having a dye concentration of 100 μg/ml. 50 μl of either solution were used for plating assays.
(§6) In brief, the plating assays were performed as follows: In a well of a (96 well) microtiter plate 50 μl of a growing cell culture were mixed with aqueous solution of reactive dye, such as methylene blue (100 μg/ml each). The samples were irradiated with appropriate radiation (light) for a given period of time. The samples (100 μl) were plated on agar plates. The plates were incubated at 37° C. for 24 h.
Data set [5] deals with Stenotrophomonas maltophilia. The conditions noted are these: dilution 10^−5.
Protocol: as §1, §5, §6
The subject of data set [6] is Staphylococcus aureus. The settings on record: for colony forming units obtained: incubation with dye (3-5 min) without irradiation; for colonies detected: irradiation 3 min.
[7] abbreviates: 1 × pre-irradiation (3 min) of textile before contact with cells.
[8] abbreviates: 2 × pre-irradiation (3 min each, 90 min between) of textile before contact with cells.
[9] abbreviates: Control (dye, no irrad.), dilution 10^−5.
Where [10] appears, read: Irradiation for 3 min, dilution 10^−5.
Setting [11] is: irradiation 3 min, laser 15 mW, 532 nm.
[12] abbreviates: textile immersed in dye 100 μg/ml, irradiation 3 min, laser 15 mW, 532 nm.
[13] abbreviates: textile incubated with dye 100 μg/ml, no irradiation.
The mark [14] stands for this setting: black light lamp, irradiation for 30 s.
Setting [15] is: black light lamp, irradiation for 3 min.
[16] abbreviates: mercury lamp, irradiation for 30 s.
The mark [17] stands for this setting: mercury lamp, irradiation for 3 min.
Where [18] appears, read: incubation with dye, mercury lamp 515-560 nm.

Like-named read-outs stand apart in the source and are kept apart here.

Protocol for Klebsiella pneumoniae: as §1
For contact assays, pieces of the textile fabric having a defined size of 1 cm×1 cm were employed.
as §3
In brief, the contact assays were performed as follows: Pieces of a textile fabric (ION-NOSTAT VI.2) having a defined size (1×1 cm) were immersed for 3 h in an aqueous solution of reactive dye, such as methylene blue (100 μg/ml each). After complete drying of the textile pieces, 3 μl of a growing cell culture were added to the surface of the textile pieces. The pieces were irradiated with appropriate radiation (light) for a given period of time. Then, the textile pieces were contacted with agar plates; and the plates were incubated at 37° C. for 24 h.
The contact assay was performed as described in Example 1 using an aqueous solution of diemethyl methylene blue (DMMB) and new methylene blue (NMB), respectively (100 μg/ml each) as well as a combination thereof. Staphylococcus aureus and Klebsiella pneumoniae were employed as test organisms. Irradiation was accomplished by means of a LED (High Power Alustar 3 W 10° LED×ON Rot, from Conrad, Hirschau, Germany) at a wavelength of 623 nm. The distance between the LED and the textile pieces was 50 cm.

Turning to `Cc1cc(N(C)C)cc2[s+]c3cc(N(C)C)cc(C)c3nc12.[Cl-]` [dimethyl methylene blue, 3,7-bis(dimethylamino)-1,9-dimethyldiphenothiazin-5-ium chloride], in the data set with Staphylococcus aureus [1] (LED 623 nm), the cell growth result was “no cell growth could be detected”. In addition, the “inhibition of cell growth” value in the data set on Klebsiella pneumoniae (about 10^4 cfu) was “significant inhibition of cell growth”. The cell numbers entry in the data set with Klebsiella pneumoniae (after 5 min of irradiation) was “noticeable reduction of cell numbers”. Besides, the “reduction of cell numbers” value in the data set on Klebsiella pneumoniae (irradiation period of 10 min) is on record as “further increase”. The “dye released from stained textile pieces” value runs as follows: (single immersion with acetone, acetic acid, and ethanol, data not shown) “Trace amounts”; (two cycles of immersion in 99% acetone, 99% acetic acid, 1 M NaOH, 99% ethanol, stained with 100 mg/l) “No dye”.

Take `CN(C)c1ccc2nc3ccc(N(C)C)cc3[s+]c2c1.[Cl-]` [methylene blue, 3,7-bis(dimethylamino)-phenothiazin-5-ium chloride]: the “cfu calculated per ml cell culture” value in data set [2] (setting [7]) was 1.0 × 10^5 cfu/ml; in data set [2] (setting [8]) it was 1.0 × 10^5 cfu/ml; in data set [2] (setting [9]), 1.1 × 10^8 cfu/ml; in data set [2] (setting [10]), 1.0 × 10^5 cfu/ml; in the data set on Staphylococcus aureus [1] (setting [7]), 0 cfu/ml; in the data set on Staphylococcus aureus [1] (setting [8]), 0 cfu/ml. In addition, the “cfu calculated per ml cell culture” value in the data set with Staphylococcus aureus [1] (setting [9]) is on record as 1.7 × 10^8 cfu/ml; with Staphylococcus aureus [1] (setting [10]), 0 cfu/ml. For the same molecule, the growth inhibition result is on record as “almost complete” in data set [2] (setting [11]) and “complete” in the data set on Staphylococcus aureus [1] (setting [11]). The entries for the “colonies (cfu) after contact sampling” value (in data set [2] (setting [12]); in the data set on Staphylococcus aureus [1] (setting [12])) were “two colonies” and “no colonies”, respectively. Besides, the “growth after contact sampling without irradiation” value (in data set [2] (setting [13]); with Staphylococcus aureus [1] (setting [13])) was “lawn of bacteria” in each case. Further, the “microbial growth upon irradiation” value in the data set with Candida albicans [3] is “significant reduction of microbial growth”. Also, the “number of colonies upon irradiation” value is “significant reduction of the number of colonies” in the data set with Staphylococcus aureus [1] (irradiation 2 min with LED1, 620-640 nm) and “significant reduction of the number of colonies” in the data set on Staphylococcus aureus [1] (irradiation 2 min with LED2, 620-640 nm). In addition, the cfu per ml in the data set with Candida albicans [4] (setting [14]) is reported as 2.7 × 10^7 cfu/ml*; in the data set on Candida albicans [4] (setting [15]) it was 2.3 × 10^7 cfu/ml*; in the data set with Candida albicans [4] (setting [16]), 2.3 × 10^7 cfu/ml*; in the data set with Candida albicans [4] (setting [17]), 2.2 × 10^7 cfu/ml*; in data set [5] (setting [14]), 2.9 × 10^7 cfu/ml; in data set [5] (setting [15]), 0 cfu/ml. Moreover, the cfu per ml is recorded as 1.4 × 10^7 cfu/ml in data set [5] (setting [16]); 0 cfu/ml in data set [5] (setting [17]); 1.2 × 10^8 cfu/ml in the data set on Staphylococcus aureus [6] (black light lamp, irradiation for 30 s, dilution 10^−5); 1.5 × 10^7 cfu/ml in the data set with Staphylococcus aureus [6] (black light lamp, irradiation for 3 min, dilution 10^−5); 1.2×10^7 cfu/ml in the data set on Staphylococcus aureus [6] (irradiation 2 min with LED1, 620-640 nm, dilution 10^−5); 2.0×10^6 cfu/ml with Staphylococcus aureus [6] (irradiation 2 min with LED2, 620-640 nm, dilution 10^−5). For the same molecule, the cfu per ml in the data set with Staphylococcus aureus [6] (mercury lamp, irradiation for 30 s, dilution 10^−5) is recorded as 2.1 × 10^7 cfu/ml; with Staphylococcus aureus [6] (mercury lamp, irradiation for 3 min, dilution 10^−5), 1.0 × 10^5 cfu/ml. Further, the “colony forming units obtained” value with Staphylococcus aureus [6] was 177 cfu. Further, the colonies detected entry is “one colony” in the data set with Staphylococcus aureus [6] (setting [18]); 15 in the data set on Staphylococcus aureus [6] (black light lamp 350-370 nm, dilution 10^−5); “No colonies” with Staphylococcus aureus [6] (mercury lamp 515-560 nm, dilution 10^−5).

In the case of `CCNc1cc2[s+]c3cc(NCC)c(C)cc3nc2cc1C.[Cl-]` [new methylene blue, 3,7-bis(ethylamino)-2,8-dimethylphenaza-thionium chloride], the cell growth entry in the data set on Staphylococcus aureus [1] (LED 623 nm) was “only a small reduction of cell growth”. Besides, in the data set with Staphylococcus aureus [1] (LED 623 nm, irradiation for 2 min and 5 min, data not shown), the “reduction of cell growth” value is reported as “more than 50%”.

Turning to `Cc1cc2nc3ccc(=[N+](C)C)cc-3sc2cc1N.[Cl-]` [toluidine blue], the “cfu calculated per ml cell culture” value in the data set on Staphylococcus aureus [1] (setting [7]) is given as 9.0 × 10^4 cfu/ml; in the data set on Staphylococcus aureus [1] (setting [8]), 5.0 × 10^4 cfu/ml; in the data set with Staphylococcus aureus [1] (setting [9]) it was 8.9 × 10^6 cfu/ml; with Staphylococcus aureus [1] (setting [10]) it was 0 cfu/ml. In addition, the “colony forming units obtained” value in the data set on Staphylococcus aureus [6] was 89 cfu. For the same molecule, the colonies detected result with Staphylococcus aureus [6] (setting [18]) was “no colony”.
